Data as given in article PMC9501899 (Journal of the American Chemical Society, 2022).
Converted amounts (≈) assume the structure as drawn. Read-outs that look alike come from different tables or passages of the source.

Key:
pRab10 = test: cells; assay type: cell-based, human; conditions: for EC50: Homo sapiens, PBMC, PBMCs, read-out: EC50s (pRab10)
From the text: The relative LRRK2 protein and pRab10 levels were obtained by quantifying the ratios of total LRRK2/GAPDH or Rab10-pThr73/total Rab10, respectively, and the ratios were normalized to the DMSO-treated samples. The relative LRRK2 and pRab10 protein levels were plotted against the compound concentration and fitted against “nonlinear regression, one site-fit log IC50” in GraphPad to obtain the DC50 and EC50 values. Data points are presented as mean ± standard error of the mean (SEM) from three biological independent replicates. […] The relative LRRK2 protein and pRab10 levels were obtained by quantifying the ratios of total LRRK2/ GAPDH or Rab10-pThr73/total Rab10, respectively, and the ratios were normalized to the DMSO-treated samples. The relative LRRK2 and pRab10 protein levels were plotted against the treatment time and were fitted against “nonlinear regression, one-phase decay” in GraphPad to obtain the half-life (T1/2) values. Data points are presented as mean ± SEM from three biological independent replicates. […] The relative LRRK2 levels were obtained by quantifying the ratios of total LRRK2/tubulin and normalized to the DMSO-treated samples. The relative LRRK2 levels were plotted against the compound concentration and fitted against “nonlinear regression, one site-fit log IC50” in GraphPad to obtain the DC50 values.
PBMC cells were separated from human blood from healthy volunteer donors following the existing protocol[82] and pelleted by centrifugation at 1000g for 2 min. The supernatant was discarded, and the PBMC pellet was resuspended in PBS containing 2% FBS for washing. The suspension was centrifuged at 1000g for 2 min again, and the PBMC pellet was resuspended in Roswell Park Memorial Institute (RPMI)-1640 (Gibco) media supplemented with 10% FBS. The cells were then seeded into six-well plates and treated with testing compounds at indicated concentrations and time periods. After treatment, the cells were collected into a 2 mL Eppendorf tube and centrifuged at 500g for 2 min to pellet the cells, the supernatant was discarded, and the pellet was resuspended in 1 mL PBS and centrifuged at 500g for 2 min again. The PBMC pellet was lysed with 60 μL of lysis buffer containing 50 mM tris–HCl, pH 7.5, 1% (v/v) Triton X-100, 1 mM ethylene glycol-bis(β-aminoethyl ether)-N,N,N′,N′-tetraacetic acid (EGTA), 1 mM sodium orthovanadate, 50 mM NaF, 0.1% (v/v) 2-mercaptoethanol, 10 mM 2-glycerophosphate, 5 mM sodium pyrophosphate, 0.1 μg/mL microcystin-LR (Enzo Life Sciences), 270 mM sucrose, and 0.5 mM diisopropyl fluorophosphate (DIFP) (Sigma-Aldrich, Cat# D0879) in addition to a complete EDTA-free protease inhibitor cocktail (Sigma-Aldrich Cat # 11836170001). DIFP is highly toxic and must be prepared in a fume hood to a stock solution of 0.5 M in isopropanol. The lysed cells were then centrifuged at 1500g for 15 min at 0 °C. The supernatants were collected for analysis by quantitative immunoblotting. For long-term storage, the supernatant was flash-frozen and stored at −80 °C. Protein concentrations of cell lysates were determined using the Pierce BCA Protein Assay Kit (Thermo Fisher).
Cell lysates containing a quarter of a volume of 4× NuPAGE LDS sample buffer (NP0007) supplemented with 5% β-mercaptoethanol were heated at 95 °C for 5 min. […]

Caco-2 cell permeability = assay type: in vitro ADME; conditions: human
Experimental: Caco-2 cells with transepithelial electrical resistance (TEER) (TEER = (resistance sample – resistance blank) × effective membrane area) = 450 ± 19 Ω cm^2were used for the experiment. Compounds were dissolved in the appropriate buffer (10 mM DMSO stock solutions were diluted with HBSS buffer to a final concentration of 10 μM testing compound and 0.4% DMSO, Lucifer Yellow was introduced in the apical side buffer to test the intactness of the monocell layer) and was applied to the apical or basolateral donor side for measuring A–B or B–A permeability (two replicates), respectively. The apical and basolateral plates were prewarmed to 37 °C before placing the apical plate onto the basolateral plate. After incubating at 37 °C for 90 min, the apical plate and basolateral plate were separated, and the donor or receiver samples were analyzed with UPLC-MS/MS.

Plasma stability assay = assay type: in vitro ADME; conditions: mouse plasma, 37 °C; read-out: T1/2 in mouse plasma
Experimental: Frozen plasma was thawed at 37 °C and centrifuged at 3000 rpm for 8 min to remove clots, and the supernatant was used in the experiment. The pH of the plasma was recorded, and only the pH range between 7.4 and 8 was used. The plasma and compound solution were prewarmed to 37 °C. Ten microliters of prewarmed testing compound or reference compound (procaine) solution (20 μM in 0.05 mM sodium phosphate buffer (pH 7.4) with 0.5% BSA) was mixed with 90 μL of plasma at different time points to allow for 5, 15, 30, 45, and 60 min of incubation time. For 0 min, the plasma was mixed with vehicle only. Acetonitrile was added to the compound and plasma mixture to quench the reaction, and the resulting mixture was centrifuged (5594g for 15 min). The supernatant was taken and diluted before LC-MS analysis.

[1] = Solubility in phosphate buffer and FeSSIF; assay type: physicochemical
Experimental: Eight microliters of reference or test compound stock solution (10 mM in DMSO) was added to 792 μL of 100 mM phosphate buffer (pH 7.4) or FeSSIF (pH 5.8). The resulting mixture was shaken for 1 h (1000 rpm) at room temperature and then centrifuged for 10 min (12 000 rpm) to remove the undissolved particles. The supernatant was collected and diluted 10 times and 100 times separately with 100 mM phosphate buffer or FeSSIF. Five microliters of the supernatant samples (no diluted, 10 times diluted, 100 times diluted) were mixed with 95 μL of acetonitrile (containing internal standard) separately before injecting into LC-MS/MS for analysis.

Structure (SMILES)	EC50 (pRab10; 4 h) [nM]	EC50 (pRab10; 24 h) [nM]	pRab10 T1/2 (pRab10; human, pbmc, 300 nM) [h]	Papp A→B at 90 min, 10 µM (Caco-2 cell permeability; A–B) [×10⁻⁶ cm/s]	Papp B→A at 90 min, 10 µM (Caco-2 cell permeability; B–A) [×10⁻⁶ cm/s]	half-life at 2 µM (Plasma stability assay) [h]	solubility at 1 h ([1]; 100 mM phosphate buffer, pH 7.4, read-out: solubilities in PBS (pH 7.4)) [µM]	solubility at 1 h ([1]; FeSSIF, pH 5.8, read-out: solubility in FeSSIF (pH 5.8)) [µM]
CNc1nc(Nc2ccc(C(=O)N3CCN(C[C@H]4CC[C@H](CSC(C)(C)[C@H](NC(=O)C5(F)CC5)C(=O)N5C[C@H](O)CC5C(=O)NCc5ccc(-c6scnc6C)cc5)CC4)CC3)cc2OC)ncc1Cl (stereo partly drawn) [XL01126, (2S,4R)-1-((R)-3-((((1R,4R)-4-((4-(4-((5-Chloro-4-(methylamino)pyrimidin-2-yl)amino)-3-methoxybenzoyl)piperazin-1-yl)methyl)cyclohexyl)methyl)thio)-2-(1-fluorocyclopropane-1-carboxamido)-3-methylbutanoyl)-4-hydroxy-N-(4-(4-methylthiazol-5-yl)benzyl)pyrrolidine-2-carboxamide]	69	20	0.38	< 0.74	< 1.43	1.8	0.55 (≈ 0.561 µg/mL)	26.1 (≈ 26.6 µg/mL)
CNc1nc(Nc2ccc(C(=O)N3CCN(C[C@H]4CC[C@H](CSC(C)(C)[C@H](NC(=O)C5(F)CC5)C(=O)N5C[C@@H](O)C[C@H]5C(=O)NCc5ccc(-c6scnc6C)cc5)CC4)CC3)cc2OC)ncc1Cl [cis-XL01126, (2S,4S)-1-((R)-3-((((1R,4R)-4-((4-(4-((5-Chloro-4-(methylamino)pyrimidin-2-yl)amino)-3-methoxybenzoyl)piperazin-1-yl)methyl)cyclohexyl)methyl)thio)-2-(1-fluorocyclopropane-1-carboxamido)-3-methylbutanoyl)-4-hydroxy-N-(4-(4-methylthiazol-5-yl)benzyl)pyrrolidine-2-carboxamide]	~3000	705						
